Test results published in patent US20250002527A1, “STEROID COMPOUND AND CONJUGATE THEREOF” (DUALITY BIOLOGICS (SUZHOU) CO., LTD., priority 2021, published 2025).
pEC50: −log10 of the molar value. Several values for one entry are separate records, joined by “and”; a condition that tells them apart may be missing. Equal entries are not always repeated.

What was measured:
GR = molecular target: T1, GR (Homo sapiens, UniProt P04150); assay: GR luciferase reporter gene elution experiment; assay type: cell-based; parameters: concentration or dose not given beside the values; settings: then 24 hours
T1 construct: expressed in transfected cells; host or cells: HEK293
T1 sequence (P04150 1-777): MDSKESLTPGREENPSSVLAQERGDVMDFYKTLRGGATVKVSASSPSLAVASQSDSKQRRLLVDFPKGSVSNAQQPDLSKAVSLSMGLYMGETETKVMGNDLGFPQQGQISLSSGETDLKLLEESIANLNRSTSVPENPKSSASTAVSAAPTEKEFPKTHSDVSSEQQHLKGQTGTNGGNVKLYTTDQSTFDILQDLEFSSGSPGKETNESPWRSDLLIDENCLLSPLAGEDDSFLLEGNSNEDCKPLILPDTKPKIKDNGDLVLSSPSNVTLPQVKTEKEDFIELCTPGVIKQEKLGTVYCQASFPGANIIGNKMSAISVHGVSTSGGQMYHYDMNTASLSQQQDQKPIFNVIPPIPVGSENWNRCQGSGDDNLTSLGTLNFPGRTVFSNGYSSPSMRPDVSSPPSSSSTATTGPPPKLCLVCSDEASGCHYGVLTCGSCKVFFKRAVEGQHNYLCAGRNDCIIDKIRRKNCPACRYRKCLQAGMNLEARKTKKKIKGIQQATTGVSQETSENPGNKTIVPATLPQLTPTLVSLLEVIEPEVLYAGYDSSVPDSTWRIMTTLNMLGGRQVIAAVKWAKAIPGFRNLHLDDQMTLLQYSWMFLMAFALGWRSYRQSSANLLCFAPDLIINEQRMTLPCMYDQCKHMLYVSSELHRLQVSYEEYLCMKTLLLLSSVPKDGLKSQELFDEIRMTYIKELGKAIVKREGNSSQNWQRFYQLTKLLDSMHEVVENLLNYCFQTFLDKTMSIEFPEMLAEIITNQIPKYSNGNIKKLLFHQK
Procedure: The compounds of the present application were evaluated for their ability to continue activation upon binding to GR.
(§1) HEK293 cells were cultured in DMEM+10% FBS medium in a carbon dioxide incubator humidified at 37° C. at 5% carbon dioxide.
(§2) • 1) HEK293 cells were trypsinized, and the HEK293 cell resuspension was adjusted to 200,000 cell/mL in medium (96 well plate: 100 μL/well). • 2) Transfection reagent mixtures were prepared according to the table below, mixed well and left at room temperature for 20 minutes.
(§3) • 3) The prepared transfection mixtures were added to 10 mL of the cell density-adjusted resuspension, mixed well by turning the mixtures upside down, and seeded into a 96-well plate at a volume of 100 μL/well. • 4) The 96-well plate was incubated in a humidified incubator at 37° C. and 5% carbon dioxide for 24 hours.
(§4) The test plate was detected using the Dual-Glo Luciferase Assay System kit from Promega, and the fluorescence signal of Firefly Luciferase and the fluorescence signal of Renilla Luciferase were read using Enspire, respectively.
• 1) The final measurement value was a normalized value “F/R” obtained by dividing the Firefly Luciferase fluorescent signal by the Renilla Luciferase fluorescent signal. • 2) The data were copied and pasted into Excel, and the activation rate was obtained through an equation.
[formula] • 3) The data were imported into MS Excel and subjected to curve fitting by using XLFit excel add-in version 5.4.0.8 to obtain an EC50 value.
(§5) Y is the agonism and X is the concentration of the compound.

MR = molecular target: T2, MR (Homo sapiens, UniProt P08235); assay: MR luciferase reporter gene experiment; assay type: cell-based; settings: HEK293 transfected with pBIND-MR
T2 construct: expressed in transfected cells; host or cells: HEK293
T2 sequence (P08235 1-984): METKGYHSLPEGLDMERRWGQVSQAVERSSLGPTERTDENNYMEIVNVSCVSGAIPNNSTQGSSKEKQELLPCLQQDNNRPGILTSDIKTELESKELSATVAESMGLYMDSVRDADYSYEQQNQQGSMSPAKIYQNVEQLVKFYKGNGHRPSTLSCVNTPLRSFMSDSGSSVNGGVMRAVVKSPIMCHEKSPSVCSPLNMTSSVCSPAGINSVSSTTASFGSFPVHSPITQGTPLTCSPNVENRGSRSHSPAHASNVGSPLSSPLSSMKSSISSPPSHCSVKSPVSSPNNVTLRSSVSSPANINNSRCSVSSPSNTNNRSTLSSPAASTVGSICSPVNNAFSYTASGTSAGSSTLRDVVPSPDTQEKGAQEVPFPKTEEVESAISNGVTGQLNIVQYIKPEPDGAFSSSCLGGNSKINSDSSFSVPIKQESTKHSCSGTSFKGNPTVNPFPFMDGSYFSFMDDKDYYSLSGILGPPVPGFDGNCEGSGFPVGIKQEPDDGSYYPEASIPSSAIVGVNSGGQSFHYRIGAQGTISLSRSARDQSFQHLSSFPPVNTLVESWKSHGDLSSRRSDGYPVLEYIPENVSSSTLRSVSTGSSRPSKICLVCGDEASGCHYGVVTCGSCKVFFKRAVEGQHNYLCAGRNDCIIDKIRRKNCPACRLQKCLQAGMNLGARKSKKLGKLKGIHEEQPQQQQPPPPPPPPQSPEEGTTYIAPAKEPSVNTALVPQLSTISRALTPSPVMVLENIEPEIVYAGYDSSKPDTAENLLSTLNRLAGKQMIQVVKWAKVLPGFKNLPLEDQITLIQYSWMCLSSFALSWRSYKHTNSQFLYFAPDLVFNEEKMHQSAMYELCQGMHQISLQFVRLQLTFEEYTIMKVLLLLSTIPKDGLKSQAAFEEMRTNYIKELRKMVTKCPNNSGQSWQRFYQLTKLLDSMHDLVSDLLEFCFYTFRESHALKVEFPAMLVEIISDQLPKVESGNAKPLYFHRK
Procedure: as §1, §2, §3, §4, §5

## C[C@]12C=CC(=O)C=C1CC[C@@H]1[C@@H]2[C@@H](O)C[C@@]2(C)[C@H]1C[C@H]1O[C@@H](c3ccc(Cc4ccc(CO)cc4)cc3)O[C@]12C(=O)CO [Compound 4]
GR; wash off after 15 min
  Wash off time (Rate of activation %) 15 min: 127.6% and 129.6%
GR; wash off after 30 min
  Wash off time (Rate of activation %) 30 min: 127.0% and 128.5%
GR; wash off after 1 h
  Wash off time (Rate of activation %) 1 h: 164.6% and 106.6%
GR; wash off after 2 h
  Wash off time (Rate of activation %) 2 h: 131.3% and 124.8%
GR; wash off after 4 h
  Wash off time (Rate of activation %) 4 h: 139.9% and 125.3%
MR
  pEC50: < 6.00
